US9493444B2 (Merck Patent GmbH, priority 2012, dated 2016)

Each compound was assayed on Wnt pathway (TCF-dependent transcription in HEK293 luciferase reporter cell line with ER-DSH construct) (assay: Cellular assay for Wnt pathway activity (luciferase reporter)). Settings: Homo sapiens; Wnt pathway inhibition, HEK293 luciferase reporter cells (ER-DSH, TCF promoter), 24 hours incubation, estrogen-induced.
Assay type: cell-based
Method in brief: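 Compounds (30 μM down to 1 nM) were incubated 24 h on cells induced for TCF-dependent transcription with estrogen. Luciferase activity was read by luminescence, normalized to untreated vehicle control, and fitted for IC50.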

Cc1ccc(-c2ccc(Oc3cncc(NCCN4CCCC4=O)n3)cc2)nc1 [Compound 196, 1-(2-{6-[4-(5-Methyl-pyridin-2-yl)-phenoxy]-pyrazin-2-ylamino}-ethyl)-pyrrolidin-2-one] and Cc1ccc(-c2ccc(Oc3cncc(NCCN4CCCCC4=O)n3)cc2)nc1 [Compound 197, 1-(2-{6-[4-(5-Methyl-pyridin-2-yl)-phenoxy]-pyrazin-2-ylamino}-ethyl)-piperidin-2-one] cannot be ordered by IC50: under 200 nM for the first, under 200 nM for the second.

First: CC(=O)N(C)CCN(C)c1cncc(Oc2ccc(-c3ccc([N+](=O)[O-])cn3)cc2)n1 [Compound 198, N-Methyl-N-[2-(methyl-{6-[4-(5-nitro-pyridin-2-yl)-phenoxy]-pyrazin-2-yl}-amino)-ethyl]-acetamide]
Second: CC(=O)N(C)CCN(C)c1cncc(Oc2ccc(-c3ccnc(O)c3)cc2)n1 [Compound 204, N-[2-({6-[4-(2-Hydroxy-pyridin-4-yl)-phenoxy]-pyrazin-2-yl}-methyl-amino)-ethyl]-N-methyl-acetamide]
The IC50 of the first is lower: under 200 nM for the first, 200 to 1000 nM for the second.

CC(=O)N(C)CCN(C)c1cncc(Oc2ccc(-c3cc(C#N)ccn3)cc2)n1 [Compound 199, N-[2-({6-[4-(4-Cyano-pyridin-2-yl)-phenoxy]-pyrazin-2-yl}-methyl-amino)-ethyl]-N-methyl-acetamide] and CC(=O)N(C)CCN(C)c1cncc(Oc2ccc(-c3ccnc(C#N)c3)cc2)n1 [Compound 201, N-[2-({6-[4-(2-Cyano-pyridin-4-yl)-phenoxy]-pyrazin-2-yl}-methyl-amino)-ethyl]-N-methyl-acetamide] cannot be ordered by IC50: under 200 nM for the first, under 200 nM for the second.

CC(=O)N(C)CCN(C)c1cncc(Oc2ccc(-c3cccc(C#N)n3)cc2)n1 [Compound 200, N-[2-({6-[4-(6-Cyano-pyridin-2-yl)-phenoxy]-pyrazin-2-yl}-methyl-amino)-ethyl]-N-methyl-acetamide] and CC(=O)N(C)CCN(C)c1cncc(Oc2ccc(-c3cccc(N)n3)cc2)n1 [Compound 205, N-[2-({6-[4-(6-Amino-pyridin-2-yl)-phenoxy]-pyrazin-2-yl}-methyl-amino)-ethyl]-N-methyl-acetamide] cannot be ordered by IC50: under 200 nM for the first, under 200 nM for the second.

CC(=O)N(C)CCN(C)c1cncc(Oc2ccc(-c3ccnc(N)n3)cc2)n1 [Compound 202, N-[2-({6-[4-(2-Amino-pyrimidin-4-yl)-phenoxy]-pyrazin-2-yl}-methyl-amino)-ethyl]-N-methyl-acetamide] and CC(=O)N(C)CCN(C)c1cncc(Oc2ccc(-c3ccnc(F)c3)cc2)n1 [Compound 210, N-[2-({6-[4-(2-Fluoro-pyridin-4-yl)-phenoxy]-pyrazin-2-yl}-methyl-amino)-ethyl]-N-methyl-acetamide] cannot be ordered by IC50: under 200 nM for the first, under 200 nM for the second.

CC(=O)N(C)CCN(C)c1cncc(Oc2ccc(-c3ccncc3)cc2)n1 [Compound 203, N-Methyl-N-(2-{methyl-[6-(4-pyridin-4-yl-phenoxy)-pyrazin-2-yl]-amino}-ethyl)-acetamide] and CC(=O)N(C)CCN(C)c1cncc(Oc2ccc(-c3cncnc3)cc2)n1 [Compound 209, N-Methyl-N-(2-{methyl-[6-(4-pyrimidin-5-yl-phenoxy)-pyrazin-2-yl]-amino}-ethyl)-acetamide] cannot be ordered by IC50: under 200 nM for the first, under 200 nM for the second.

Compared with CC(=O)N(C)CCN(C)c1cncc(Oc2ccc(-c3cccc(S(C)(=O)=O)n3)cc2)n1 [Compound 206, N-[2-({6-[4-(6-Methane-sulfonyl-pyridin-2-yl)-phenoxy]-pyrazin-2-yl}-methyl-amino)-ethyl]-N-methyl-acetamide], CC(=O)N(C)CCN(C)c1cncc(Oc2ccc(-c3cncc(C)c3)cc2)n1 [Compound 212, N-Methyl-N-[2-(methyl-{6-[4-(5-methyl-pyridin-3-yl)-phenoxy]-pyrazin-2-yl}-amino)-ethyl]-acetamide] is higher in IC50: under 200 nM for the first, 200 to 1000 nM for the second. The first is the more potent here.

First: CC(=O)N(C)CCN(C)c1cncc(Oc2ccc(-c3cnc4ccccc4c3)cc2)n1 [Compound 207, N-Methyl-N-(2-{methyl-[6-(4-quinolin-3-yl-phenoxy)-pyrazin-2-yl]-amino}-ethyl)-acetamide]
Second: CC(=O)N(C)CCN(C)c1cncc(Oc2ccc(-c3ccc(C#N)nc3)cc2)n1 [Compound 211, N-[2-({6-[4-(6-Cyano-pyridin-3-yl)-phenoxy]-pyrazin-2-yl}-methyl-amino)-ethyl]-N-methyl-acetamide]
The IC50 of the first is higher: 200 to 1000 nM for the first, under 200 nM for the second.

Compared with CC(=O)N(C)CCN(C)c1cncc(O[C@H]2C[C@H]3CC[C@@H]2C3)n1 [Compound 208, N-(2-{[6-((1R,2S,4S)-Bicyclo[2.2.1]hept-2-yloxy)-pyrazin-2-yl]-methyl-amino}-ethyl)-N-methyl-acetamide], CC(=O)N(C)CCN(C)c1cncc(OC2Cc3ccccc3C2)n1 [Compound 223, N-(2-{[6-(Indan-2-yloxy)-pyrazin-2-yl]-methyl-amino}-ethyl)-N-methyl-acetamide] is lower in IC50: 1000 to 10000 nM for the first, 200 to 1000 nM for the second.

CC(=O)N(C)CCCc1cncc(Oc2ccc(-c3ccncc3C#N)cc2)n1 [Compound 213, N-(3-{6-[4-(3-Cyano-pyridin-4-yl)-phenoxy]-pyrazin-2-yl}-propyl)-N-methyl-acetamide] and CC(=O)N(C)CCCc1cncc(Oc2ccc(-c3ccc(C)cn3)cc2)n1 [Compound 215, N-Methyl-N-(3-{6-[4-(5-methyl-pyridin-2-yl)-phenoxy]-pyrazin-2-yl}-propyl)-acetamide] fall in the same range of IC50: 200 to 1000 nM for the first, 200 to 1000 nM for the second.

Compared with CC(=O)N(C)CCCc1cncc(Oc2ccc(-c3cnc(N)cn3)cc2)n1 [Compound 214, N-(3-{6-[4-(5-Amino-pyrazin-2-yl)-phenoxy]-pyrazin-2-yl}-propyl)-N-methyl-acetamide], CC(=O)N(C)CCCc1cncc(Oc2ccc(-c3ccc(F)cn3)cc2)n1 [Compound 220, N-(3-{6-[4-(5-Fluoro-pyridin-2-yl)-phenoxy]-pyrazin-2-yl}-propyl)-N-methyl-acetamide] is higher in IC50: 200 to 1000 nM for the first, 1000 to 10000 nM for the second.

CC(=O)N(C)CCCc1cncc(Oc2ccc(-c3ccc(N4CCOCC4)nc3)cc2)n1 [Compound 216, N-Methyl-N-(3-{6-[4-(6-morpholin-4-yl-pyridin-3-yl)-phenoxy]-pyrazin-2-yl}-propyl)-acetamide] and CC(=O)Nc1ccc(-c2ccc(Oc3cncc(CCCN(C)C(C)=O)n3)cc2)cn1 [Compound 219, N-(3-{6-[4-(6-Acetylamino-pyridin-3-yl)-phenoxy]-pyrazin-2-yl}-propyl)-N-methyl-acetamide] fall in the same range of IC50: 200 to 1000 nM for the first, 200 to 1000 nM for the second.

CC(=O)N(C)CCCc1cncc(Oc2ccc(-c3cccc(N4CCN(C)CC4)n3)cc2)n1 [Compound 217, N-Methyl-N-[3-(6-{4-[6-(4-methyl-piperazin-1-yl)-pyridin-2-yl]-phenoxy}-pyrazin-2-yl)-propyl]-acetamide] and CC(=O)Nc1cccc(-c2ccc(Oc3cncc(CCCN(C)C(C)=O)n3)cc2)n1 [Compound 218, N-(3-{6-[4-(6-Acetylamino-pyridin-2-yl)-phenoxy]-pyrazin-2-yl}-propyl)-N-methyl-acetamide] fall in the same range of IC50: 200 to 1000 nM for the first, 200 to 1000 nM for the second.

First: COc1ccc(-c2ccc(Oc3cncc(CCCN(C)C(C)=O)n3)cc2)nc1 [Compound 221, N-(3-{6-[4-(5-Methoxy-pyridin-2-yl)-phenoxy]-pyrazin-2-yl}-propyl)-N-methyl-acetamide]
Second: CC(=O)N(C)CCN(C)c1cncc(Oc2cnn(-c3cccc(C(F)(F)F)c3)c2)n1 [Compound 222, N-Methyl-N-[2-(methyl-{6-[1-(3-trifluoromethyl-phenyl)-1H-pyrazol-4-yloxy]-pyrazin-2-yl}-amino)-ethyl]-acetamide]
The IC50 of the first is lower: 200 to 1000 nM for the first, 1000 to 10000 nM for the second. The first is the more potent here.
